Among the data in patent publication US11691951B2 (Curtana Pharmaceuticals, Inc., priority 2015, dated 2023) are IC50 values, retold here.

This experiment concerns GBM8 cells (human glioblastoma neurosphere cell culture). The experiment in a line: GBM8 viability assay (Cell Titer Glo luminescence, 3 days). The class given is cell-based. The note with it: 72 h, 3 days incubation. The method, boiled down:
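Patient-derived neurosphere cells (4000/well) in NeuroCult medium with rh EGF, rh bFGF and heparin, ultra-low attachment, dosed after overnight settling; 3 days at 37 °C. CellTiter-Glo luminescence versus DMSO controls gave % growth inhibition; IC50 from 4-parameter fit of serial dilutions.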
On to `COc1ccc(NC(=O)Nc2nc(C)cc(NCCc3ccccn3)n2)cc1` [Compound 134], for which the IC50 fell in the range of 1000 to 10000 nM.
Next, `COC(=O)CCNc1cc(C)nc(NC(=O)Nc2ccc(F)c(Cl)c2)n1` [Compound 167]: 1000 to 10000 nM; `CNCCNc1cc(C)nc(NC(=O)Nc2cccc(C)c2)n1` [Compound 229, 1-(4-methyl-6-((2-(methylamino)ethyl)amino)pyrimidin-2-yl)-3-(m-tolyl)urea]: 1000 to 10000 nM; `Cc1cc(NCCCCO)nc(NC(=O)Nc2ccc(C(F)(F)F)cc2)n1` [Compound 200]: less than 1000 nM.
In the case of `Cc1cc(NCCN)nc(NC(=O)Nc2ccc3c(c2)OCCO3)n1` [Compound 293] it was 1000 to 10000 nM; in that of `Cc1cc(NCCCO)nc(NC(=O)Nc2cccc(Cl)c2)n1` [Compound 43, 3-{2-[3-(m-chlorophenyl)ureido]-6-methyl-4-pyrimidinylamino}-propanol], less than 1000 nM.
In the case of `CNCCCN(C)c1cc(C)nc(NC(=O)Nc2ccc(F)c(C(F)(F)F)c2)n1` [Compound 113] it was 1000 to 10000 nM; in that of `COc1cccc(NC(=O)Nc2nc(C)cc(NCC(O)CO)n2)c1` (centres unmarked) [Compound 151], 1000 to 10000 nM; in that of `Cc1cc(NCC2CCCNC2)nc(NC(=O)Nc2ccc(Cl)c(C(F)(F)F)c2)n1` (centres unmarked) [Compound 66], less than 1000 nM.
With `Cc1cc(NCC2CCCNC2)nc(NC(=O)Nc2ccc(Cl)c(Cl)c2)n1` (centres unmarked) [Compound 27], the IC50 was less than 1000 nM.
Next, `COc1ccc(NC(=O)Nc2nc(C)cc(NCCCN(C)C)n2)cc1` [Compound 125]: less than 1000 nM.
The molecule `CCNc1cc(C)nc(NC(=O)Nc2ccc3c(c2)OCCO3)n1` [Compound 295] showed an IC50 of less than 1000 nM.
Next, `Cc1cc(NCCCCN)nc(NC(=O)Nc2ccc(C)c(C)c2)n1` [Compound 254]: less than 1000 nM.
Next, `COc1cccc(NC(=O)Nc2nc(C)cc(NCCCCN(C)C)n2)c1` [Compound 148]: 1000 to 10000 nM; `COc1ccc(NC(=O)Nc2nc(C)cc(NCCN)n2)cc1` [Compound 127]: less than 1000 nM.
Next, `Cc1cc(NCCN)nc(NC(=O)Nc2cccc(OC(F)(F)F)c2)n1` [Compound 178]: less than 1000 nM.
In turn, `Cc1cc(NCCCCN)nc(NC(=O)Nc2cccc(C(F)(F)F)c2)n1` [Compound 190] displayed an IC50 of less than 1000 nM.
In the case of `Cc1cc(NCCO)nc(NC(=O)Nc2ccc(Cl)c(Cl)c2)n1` [Compound 12] it was less than 1000 nM; in that of `COc1cccc(NC(=O)Nc2nc(C)cc(NCCN)n2)c1` [Compound 144], 1000 to 10000 nM.
In the case of `Cc1cc(NCCCN(C)C)nc(NC(=O)Nc2ccc(Cl)cc2)n1` [Compound 44, 1-{2-[3-(4-chloro-phenyl)ureido]-6-methyl-4-pyrimidin-ylamino}-3-(dimethylamino)propane] it was less than 1000 nM; in that of `Cc1cc(NCCN)nc(NC(=O)Nc2ccc(Cl)c(C(F)(F)F)c2)n1` [Compound 55], less than 1000 nM; in that of `CNCCCNc1cc(C)nc(NC(=O)Nc2ccc(F)c(C(F)(F)F)c2)n1` [Compound 121], less than 1000 nM.
`Cc1cc(NCCO)nc(NC(=O)Nc2cccc(OC(F)(F)F)c2)n1` [Compound 176] showed an IC50 of less than 1000 nM.
In turn, `COc1cccc(NC(=O)Nc2nc(C)cc(NCCCN(C)C)n2)c1` [Compound 141] registered an IC50 of 1000 to 10000 nM.
The molecule `CCCCNc1cc(C)nc(NC(=O)Nc2ccc(OC)cc2)n1` [Compound 129] yielded an IC50 of less than 1000 nM.
As to `Cc1cc(NCCCCN)nc(NC(=O)Nc2ccc(F)c(C(F)(F)F)c2)n1` [Compound 112], the IC50 was less than 1000 nM.
The molecule `COc1cccc(NC(=O)Nc2nc(C)cc(NCCCCN)n2)c1` [Compound 142] gave an IC50 of 1000 to 10000 nM.
With `CCNc1cc(C)nc(NC(=O)Nc2ccc(OC(F)(F)F)cc2)n1` [Compound 90], the IC50 was less than 1000 nM.
In the case of `CCCNc1cc(C)nc(NC(=O)Nc2cccc(C)c2)n1` [Compound 218], the IC50 is less than 1000 nM.
